Assay: Toxicity in spruce budworm larvae assessed as mortality at 0.8 umol
Type: organism-based
Conditions: choristoneura fumiferana, in vivo, read-out: Activity

CC(C)=CCCC(=O)c1cc2cc(O)ccc2o1
mortality: 36%
